A word on the IC50: it is the midpoint of a concentration-inhibition curve.

The target of the assay is T1, MAGL (recombinant wild-type) (Homo sapiens, UniProt Q99685).
T1 sequence (Q99685 1-303): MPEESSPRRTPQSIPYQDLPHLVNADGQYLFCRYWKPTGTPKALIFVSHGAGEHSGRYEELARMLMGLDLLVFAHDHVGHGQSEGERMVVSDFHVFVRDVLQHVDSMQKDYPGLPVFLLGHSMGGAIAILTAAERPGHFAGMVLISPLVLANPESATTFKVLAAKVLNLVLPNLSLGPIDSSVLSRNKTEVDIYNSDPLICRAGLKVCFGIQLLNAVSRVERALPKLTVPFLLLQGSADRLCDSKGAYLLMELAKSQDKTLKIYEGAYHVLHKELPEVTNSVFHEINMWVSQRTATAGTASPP
The experiment in a line: MAGL inhibitory activity, hydrolysis of 4-nitrophenylacetate to 4-nitrophenol (absorbance at 405 nm). Particulars: 1 nM MAGL, 300 μM 4-nitrophenylacetate, 15 min preincubation at RT, slope of absorbance at 405 nm between 5 and 80 min. Type of assay: biochemical. Here is the method:
Compounds were profiled for MAGL inhibitory activity by measuring the enzymatic activity of MAGL by following the hydrolysis of 4-nitorphenylacetate resulting in 4-nitrophenol, which absorbs at 405-412 nm (G. G. Muccioli, G. Labar, D. M. Lambert, Chem. Bio. Chem. 2008, 9, 2704-2710).
The assay was carried out in 384 well assay plates (black with clear bottom, non-binding surface treated, Corning Ref. 3655) in a total volume of 40 μL. Compound dilutions were made in 100% DMSO (VWR Chemicals 23500.297) in a polypropylene plate in 3-fold dilution steps to give a final concentration range in the assay from 25 μM to 1.7 nM. 1 μL compound dilutions (100% DMSO) were added to 19 μL MAGL (recombinant wild-type) in assay buffer (50 mM TRIS (GIBCO, 15567-027), 1 mM EDTA (Fluka, 03690-100 ml)). The plate was shaked for 1 min at 2000 rpm (Variomag Teleshake) and then incubated for 15 min at RT. To start the reaction, 20 μL 4-Nitrophenlyacetate (Sigma N-8130) in assay buffer with 6% EtOH was added. The final concentrations in the assay were 1 nM MAGL and 300 μM 4-Nitrophenylacetate. After shaking (1 m, 2000 rpm) and 5 min incubation at RT, the absorbance at 405 nm was measured for a first time (Molecular Devices, SpectraMax Paradigm). A second measurement was then done after incubation for 80 min at RT. From the two measurements, the slope was calculated by subtracting the first from the second measurement.
As to `O=C1COc2c(F)cc(C(=O)N3CCC(Cc4ccccc4)CC3)cc2N1` [Example 24, 6-(4-benzylpiperidine-1-carbonyl)-8-fluoro-4H-1,4-benzoxazin-3-one], the IC50 worked out at 140 nM. As for `O=C1COc2ccc(C(=O)N3CCC(Cc4ccccc4)CC3)cc2N1` [Example 1, 6-(4-benzylpiperidine-1-carbonyl)-4H-1,4-benzoxazin-3-one], the figure is 101 nM; as for `O=C1COc2ccc(C(=O)N3CCN(Cc4ccc(C(F)(F)F)cc4)C(C(F)(F)F)C3)cc2N1` (centres unmarked) [Example 36, 6-[3-(trifluoromethyl)-4-[[4-(trifluoromethyl)phenyl]methyl]piperazine-1-carbonyl]-4H-1,4-benzoxazin-3-one], 112 nM; as for `O=C1COc2ccc(C(=O)N3CCC(C(=O)c4ccccc4)CC3)cc2N1` [Example 13, 6-(4-benzoylpiperidine-1-carbonyl)-4H-1,4-benzoxazin-3-one], 320 nM. Next, `O=C1COc2ccc(C(=O)N3CCC(F)(Cc4ccc(Cl)cc4)CC3)cc2N1` [Example 23, 6-[4-[(4-chlorophenyl)methyl]-4-fluoropiperidine-1-carbonyl]-4H-1,4-benzoxazin-3-one]: 300 nM. On to `COc1ccc(CC2CCN(C(=O)c3ccc4c(c3)NC(=O)CO4)CC2)cc1` [Example 5, 6-[4-[(4-methoxyphenyl)methyl]piperidine-1-carbonyl]-4H-1,4-benzoxazin-3-one], for which the half-inhibitory concentration (IC50) stood at 170 nM. As for `O=C1COc2ccc(C(=O)N3CCC(N4C[C@@H](c5ccccc5)OC4=O)CC3)cc2N1` [Example 19, 6-[4-[(5R)-2-oxo-5-phenyl-1,3-oxazolidin-3-yl]piperidine-1-carbonyl]-4H-1,4-benzoxazin-3-one], the figure is 2490 nM; as for `O=C1COc2ccc(C(=O)N3CCC(Cc4ccc(C(F)(F)F)cc4)CC3)cc2N1` [Example 4, 6-[4-[[4-(trifluoromethyl)phenyl]methyl]piperidine-1-carbonyl]-4H-1,4-benzoxazin-3-one], 34.7 nM; as for `O=C1COc2ccc(C(=O)N3CCC(Cc4ccccn4)CC3)cc2N1` [Example 22, 6-[4-(pyridin-2-ylmethyl)piperidine-1-carbonyl]-4H-1,4-benzoxazin-3-one], 1700 nM. As for `O=C1COc2ccc(C(=O)N3CCC(Oc4ccccc4)CC3)cc2N1` [Example 14, 6-(4-phenoxypiperidine-1-carbonyl)-4H-1,4-benzoxazin-3-one], the figure is 990 nM; as for `O=C1COc2ccc(C(=O)N3CCN(Cc4ccc(C(F)(F)F)cc4)C(c4cc[nH]n4)C3)cc2N1` (centres unmarked) [Example 37, 6-[3-(1H-pyrazol-3-yl)-4-[[4-(trifluoromethyl)phenyl]methyl]piperazine-1-carbonyl]-4H-1,4-benzoxazin-3-one], 2250 nM. In the case of `O=C1COc2ccc(C(=O)N3CCC(N(C(=O)Cc4ccccc4)C4CC4)CC3)cc2N1` [Example 33, N-cyclopropyl-N-[1-(3-oxo-4H-1,4-benzoxazine-6-carbonyl)piperidin-4-yl]-2-phenylacetamide], the half-maximal inhibitory concentration (IC50) is 310 nM. As for `O=C1COc2ccc(C(=O)N3CCN(CCc4cccc(Cl)c4)C(c4cc[nH]n4)C3)cc2N1` (centres unmarked) [Example 35, 6-[4-[2-(3-chlorophenyl)ethyl]-3-(1H-pyrazol-3-yl)piperazine-1-carbonyl]-4H-1,4-benzoxazin-3-one], the figure is 1830 nM; as for `O=C1COc2ccc(C(=O)N3CCC(Cc4cccc(C(F)(F)F)c4)C3)cc2N1` (centres unmarked) [Example 30, 6-[3-[[3-(trifluoromethyl)phenyl]methyl]pyrrolidine-1-carbonyl]-4H-1,4-benzoxazin-3-one], 220 nM. Next, `O=C1COc2ccc(C(=O)N3CCC(Cc4cccc(C(F)(F)F)c4)CC3)cc2N1` [Example 17, 6-[4-[[3-(trifluoromethyl)phenyl]methyl]piperidine-1-carbonyl]-4H-1,4-benzoxazin-3-one]: 39.5 nM; `O=C1COc2ccc(C(=O)N3CCC(Cc4cccc(F)c4)CC3)cc2N1` [Example 8, 6-[4-[(3-fluorophenyl)methyl]piperidine-1-carbonyl]-4H-1,4-benzoxazin-3-one]: 47 nM. `CC1CN(C(=O)c2ccc3c(c2)NC(=O)CO3)CCN1Cc1ccc(C(F)(F)F)cc1` (centres unmarked) [Example 34, 6-[3-methyl-4-[[4-(trifluoromethyl)phenyl]methyl]piperazine-1-carbonyl]-4H-1,4-benzoxazin-3-one]: the IC50 was found to be 449 nM. As to `O=C1COc2ccc(C(=O)N3CCC(Oc4ccc(C(F)(F)F)cc4)CC3)cc2N1` [Example 15, 6-[4-[4-(trifluoromethyl)phenoxy]piperidine-1-carbonyl]-4H-1,4-benzoxazin-3-one], the IC50 turned out to be 76 nM.

As for `O=C1COc2ccc(C(=O)N3CCC(Cc4ccccc4-c4ccccc4)CC3)cc2N1` [Example 21, 6-[4-[(2-phenylphenyl)methyl]piperidine-1-carbonyl]-4H-1,4-benzoxazin-3-one], the IC50 was found to be 130 nM.

Take `O=C1COc2ccc(C(=O)N3CCN(C(=O)c4ccc(C(F)(F)F)cc4)CC3)cc2N1` [Example 32, 6-[4-[4-(trifluoromethyl)benzoyl]piperazine-1-carbonyl]-4H-1,4-benzoxazin-3-one]: the 50% inhibitory concentration (IC50) turned out to be 2180 nM.

The record behind these values is patent publication US20230183224A1, “BEZOXAZINE DERIVATIVES USEFUL AS MONOACYLGLYCEROL LIPASE INHIBITORS” (Hoffmann-La Roche Inc., priority 2017, published 2023).
